Laboratory results as given in patent US4695545A, “Culture and process for producing A41030 antibiotics” (Eli Lilly and Company, priority 1984, dated 1987).
Values after ≈ are worked out from the molar mass of the structure shown.

Key:
[1] = test system: S. pyogenes; test: In vivo oral activity against S. pyogenes in mice
[2] = test system: Streptococcus sp. Group D; test: MIC aerobic bacteria, standard agar-dilution assay; format: cell-based
[3] = test system: Bacteroides vulgatis; test: MIC anaerobic bacteria, agar-dilution; format: cell-based; details: Bacteroides vulgatis 1211
[4] = test system: Streptococcus pyogenes; test: MIC aerobic bacteria, standard agar-dilution assay; format: cell-based; details: Streptococcus pyogenes C203, 24 hours
[5] = test system: Fusobacterium symbiosum; test: MIC anaerobic bacteria, agar-dilution; format: cell-based; details: Fusobacterium symbiosum 1470
[6] = test system: Peptostreptococcus anaerobius; test: MIC anaerobic bacteria, agar-dilution; format: cell-based; details: Peptostreptococcus anaerobius 1428
[7] = test system: pseudorabies; format: cell-based
[8] = test system: Bacteroides melaninogenicus; test: MIC anaerobic bacteria, agar-dilution; format: cell-based; details: Bacteroides melaninogenicus 2736
[9] = test system: Streptococcus pneumoniae; test: MIC aerobic bacteria, standard agar-dilution assay; format: cell-based; details: Streptococcus pneumoniae Park I, 24 hours
[10] = test system: Propionibacterium acnes; test: MIC anaerobic bacteria, agar-dilution; format: cell-based; details: Propionibacterium acnes 79; agar-dilution (Table 9)
[11] = test system: Bacteroides thetaiotaomicron; test: MIC anaerobic bacteria, agar-dilution; format: cell-based; details: Bacteroides thetaiotaomicron 1438
[12] = Electrometric titration (pKa); format: physicochemical; details: electrometric titration in 66% dimethylformamide in water; stated as possible
Text: Antibiotic A41030 factor A is a white, crystalline solid.

[13] = test system: Staphylococcus aureus; test: MIC aerobic bacteria, standard agar-dilution assay; format: cell-based; details: Staphylococcus aureus S13E; agar-dilution, 24 hours
[14] = test system: Bacteroides fragilis; test: MIC anaerobic bacteria, agar-dilution; format: cell-based
[15] = test system: Clostridium septicum; test: MIC anaerobic bacteria, agar-dilution; format: cell-based; details: Clostridium septicum 1128
[16] = test system: Peptococcus prevoti; test: MIC anaerobic bacteria, agar-dilution; format: cell-based; details: Peptococcus prevoti 1281
[17] = test system: Fusobacterium necrophorum; test: MIC anaerobic bacteria, agar-dilution; format: cell-based; details: Fusobacterium necrophorum 6054A
[18] = test system: Staphylococcus epidermidis; test: MIC aerobic bacteria, standard agar-dilution assay; format: cell-based
[19] = Solubility in solvents; format: physicochemical; details: qualitative
Text: As many as seven antibiotic factors are recovered from the fermentation and are obtained as a mixture, the A41030 complex. It will be recognized that the ratio of the factors in the A41030 complex will vary, depending upon the fermentation conditions used. The individual factors A, B, C, D, E, F, and G are separated and isolated as individual compounds, as hereinafter described.

[20] = test system: Clostridium difficile; test: MIC anaerobic bacteria, agar-dilution; format: cell-based; details: Clostridium difficile 2994; agar-dilution (Table 9)
[21] = test system: Peptostreptococcus intermedius; test: MIC anaerobic bacteria, agar-dilution; format: cell-based; details: Peptostreptococcus intermedius 1264
[22] = test system: Clostridium perfringens; format: cell-based; details: Clostridium perfringens 81; agar-dilution
[23] = mice
[24] = test system: Clostridium difficile; test: MIC against Clostridium difficile strains, agar-dilution; format: cell-based
Text: The A41030 antibiotic factors A, B, C, D, E, F, and G, are also active against a number of strains of Clostridium difficile, as determined by the agardilution method.

[25] = test system: Haemophilus influenzae; test: MIC aerobic bacteria, standard agar-dilution assay; format: cell-based
[26] = test system: Propionibacterium acnes; test: MIC against Propionibacterium acnes strains, 24-hour agar-dilution; format: cell-based
Text: Antibiotic A41030 factors A, B and C have been tested and found to be active against a genus of anaerobic bacteria identified as Propionibacterium acnes.

[27] = test system: Bacteroides corrodens; test: MIC anaerobic bacteria, agar-dilution; format: cell-based; details: Bacteroides corrodens 1874
[28] = test system: Eubacterium aerofaciens; test: MIC anaerobic bacteria, agar-dilution; format: cell-based; details: Eubacterium aerofaciens 1235
[29] = test system: Klebsiella pneumoniae; test: MIC aerobic bacteria, standard agar-dilution assay; format: cell-based; details: Klebsiella pneumoniae X26, 24 hours
[30] = test system: Peptococcus asaccharolyticus; test: MIC anaerobic bacteria, agar-dilution; format: cell-based; details: Peptococcus asaccharolyticus 1302
[31] = Streptococcus sp. Group D 9960, 24 hours
[32] = Streptococcus sp. Group D X66, 24 hours
[33] = Staphylococcus epidermidis EPI2, 24 hours

NC1C(=O)NC2Cc3ccc(c(Cl)c3)Oc3cc4cc(c3O)Oc3ccc(cc3Cl)C(O)C3NC(=O)C(NC(=O)C4NC(=O)C(NC2=O)c2cc(O)cc(c2)Oc2cc1ccc2O)c1cc(Cl)c(O)c(c1)-c1c(O)cc(O)cc1C(C(=O)O)NC3=O (centres unmarked) [factor A, A41030 factor A]
in vivo oral activity [1]: > 300 mg./kg.×2 | MIC [2, 31]: 2 mg/L (≈ 1.62 µM) | MIC [2, 32]: 1 mg/L (≈ 0.811 µM) | MIC [3]: 32 mg/L (≈ 25.9 µM) | MIC [4]: 0.5 mg/L (≈ 0.405 µM) | MIC [5]: 1.0 mg/L (≈ 0.811 µM) | MIC [6]: ≤ 0.25 mg/L | concentration at which activity in vitro was shown [7]: 20 µg/mL | MIC [8]: 4 mg/L (≈ 3.24 µM) | MIC [9]: 0.5 mg/L (≈ 0.405 µM) | MIC [10]: ≤ 0.25 mg/L | MIC [11]: 64 mg/L (≈ 51.9 µM) | possibly additional pKa's [12]: > 10.5 | MIC [13]: 0.25 mg/L (≈ 0.203 µM) | MIC ([14]; Bacteroides fragilis 1877): 32 mg/L (≈ 25.9 µM) | MIC ([14]; Bacteroides fragilis 1936B): 64 mg/L (≈ 51.9 µM) | MIC [15]: 2 mg/L (≈ 1.62 µM) | MIC [16]: ≤ 0.25 mg/L | MIC [17]: 8 mg/L (≈ 6.49 µM) | MIC [18, 33]: 1 mg/L (≈ 0.811 µM) | solubility (solvents) [19]: soluble in alcohol-water mixtures, in dimethylsulfoxide, in dimethylformamide, in dimethylsulfoxide-water mixtures, in dimethylformamide-water mixtures, in dilute aqueous acid, and in dilute aqueous base | MIC [20]: 32 mg/L (≈ 25.9 µM) | MIC [21]: 1.0 mg/L (≈ 0.811 µM) | MIC [22]: 0.5 mg/L (≈ 0.405 µM) | LD50 [23]: > 300 mg/kg | acute toxicity [23]: > 300 mg/kg | MIC ([24]; Clostridium difficile 78): 1.0 mg/L (≈ 0.811 µM) | MIC ([24]; Clostridium difficile 107B): 1.0 mg/L (≈ 0.811 µM) | MIC ([24]; Clostridium difficile 111F): 1.0 mg/L (≈ 0.811 µM) | MIC ([24]; Clostridium difficile 1153): 1.0 mg/L (≈ 0.811 µM) | MIC ([24]; Clostridium difficile 2634): 1.0 mg/L (≈ 0.811 µM) | MIC ([24]; Clostridium difficile 3424-5B): 1.0 mg/L (≈ 0.811 µM) | MIC ([24]; Clostridium difficile 3816): 1.0 mg/L (≈ 0.811 µM) | MIC ([24]; Clostridium difficile 3950D): 1.0 mg/L (≈ 0.811 µM) | MIC ([24]; Clostridium difficile 6890): 1.0 mg/L (≈ 0.811 µM) | MIC ([24]; Clostridium difficile 8484): 1.0 mg/L (≈ 0.811 µM) | MIC ([24]; Clostridium difficile A-194): 1.0 mg/L (≈ 0.811 µM) | MIC ([24]; Clostridium difficile A-195): 1.0 mg/L (≈ 0.811 µM) | MIC ([24]; Clostridium difficile A-196): 1.0 mg/L (≈ 0.811 µM) | MIC ([24]; Clostridium difficile A-279): 1.0 mg/L (≈ 0.811 µM) | MIC ([24]; Clostridium difficile A-280): 1.0 mg/L (≈ 0.811 µM) | MIC ([24]; Clostridium difficile A-281): 1.0 mg/L (≈ 0.811 µM) | MIC ([24]; Clostridium difficile WAL-2112): 1.0 mg/L (≈ 0.811 µM) | MIC ([24]; Clostridium difficile WAL-3657): 1.0 mg/L (≈ 0.811 µM) | MIC ([24]; Clostridium difficile WAL-4268): 1.0 mg/L (≈ 0.811 µM) | MIC ([25]; Haemophilus influenzae 251, 24 hours): 2 mg/L (≈ 1.62 µM) | MIC ([25]; Haemophilus influenzae Brun, 24 hours): 8 mg/L (≈ 6.49 µM) | MIC ([26]; P. acnes strain 104): 0.25 mg/L (≈ 0.203 µM) | MIC ([26]; P. acnes strain 107): 0.06 mg/L (≈ 0.0486 µM) | MIC ([26]; P. acnes strain 5170): ≤ 0.03 mg/L | MIC ([26]; P. acnes strain 5176): ≤ 0.03 mg/L | MIC ([26]; P. acnes strain 5187): ≤ 0.03 mg/L | MIC ([26]; P. acnes strain 5197): ≤ 0.03 mg/L | MIC ([26]; P. acnes strain 5226): 0.5 mg/L (≈ 0.405 µM) | MIC ([26]; P. acnes strain 5227): ≤ 0.03 mg/L | MIC ([26]; P. acnes strain 5228): 1.0 mg/L (≈ 0.811 µM) | MIC ([26]; P. acnes strain 5229): 0.5 mg/L (≈ 0.405 µM) | MIC ([26]; P. acnes strain 5246): 0.06 mg/L (≈ 0.0486 µM) | MIC ([26]; P. acnes strain 5292): 0.06 mg/L (≈ 0.0486 µM) | MIC [27]: 64 mg/L (≈ 51.9 µM)

A41030 factor G
MIC [2, 31]: 4 mg/L | MIC [2, 32]: 4 mg/L | MIC [3]: 64 mg/L | MIC [4]: 2 mg/L | MIC [5]: 2 mg/L | MIC [6]: ≤ 0.5 mg/L | MIC [8]: 64 mg/L | MIC [9]: 2 mg/L | MIC [10]: 1.0 mg/L | MIC [28]: 2 mg/L | MIC [11]: 64 mg/L | MIC ([14]; Bacteroides fragilis 111): 32 mg/L | MIC ([14]; Bacteroides fragilis 1877): 32 mg/L | MIC ([14]; Bacteroides fragilis 1936B): 64 mg/L | MIC [29]: 64 mg/L | MIC [15]: 2 mg/L | MIC [30]: 1.0 mg/L | MIC [16]: 2 mg/L | MIC [17]: 2 mg/L | MIC ([18]; Staphylococcus epidermidis EPI1, 24 hours): 0.5 mg/L | MIC [18, 33]: 0.5 mg/L | solubility (solvents) [19]: soluble in the same solvents as is factor A | MIC [20]: 2 mg/L | MIC [21]: 2 mg/L | MIC [22]: 2 mg/L | MIC ([24]; Clostridium difficile 78): 1.0 mg/L | MIC ([24]; Clostridium difficile 107B): 1.0 mg/L | MIC ([24]; Clostridium difficile 111F): 1.0 mg/L | MIC ([24]; Clostridium difficile 1153): 1.0 mg/L | MIC ([24]; Clostridium difficile 2634): 1.0 mg/L | MIC ([24]; Clostridium difficile 3424-5B): 1.0 mg/L | MIC ([24]; Clostridium difficile 3816): 1.0 mg/L | MIC ([24]; Clostridium difficile 3950D): 1.0 mg/L | MIC ([24]; Clostridium difficile 6890): 1.0 mg/L | MIC ([24]; Clostridium difficile 8484): 1.0 mg/L | MIC ([24]; Clostridium difficile A-194): 1.0 mg/L | MIC ([24]; Clostridium difficile A-195): 1.0 mg/L | MIC ([24]; Clostridium difficile A-196): 1.0 mg/L | MIC ([24]; Clostridium difficile A-279): 1.0 mg/L | MIC ([24]; Clostridium difficile A-280): 1.0 mg/L | MIC ([24]; Clostridium difficile A-281): 1.0 mg/L | MIC ([24]; Clostridium difficile WAL-2112): 1.0 mg/L | MIC ([24]; Clostridium difficile WAL-3657): 1.0 mg/L | MIC ([24]; Clostridium difficile WAL-4268): 1.0 mg/L | MIC ([25]; Haemophilus influenzae 76, 24 hours): 32 mg/L | MIC ([25]; Haemophilus influenzae C.L., 24 hours): 32 mg/L | MIC [27]: 32 mg/L
